Molecules are shown by their SMILES.

Assay [1] concerns Xanthi-nc tobacco. In words: Potentiation rating of Aatrex Nine-O (atrazine) herbicidal activity on Xanthi-nc tobacco relative to equimolar salicylic acid. It counts as in vivo, Nicotiana tabacum (tobacco). More on the design: Potentiation Rating: key: 0 = no potentiation; 1 = potentiation less than equimolar SA; 2 = potentiation statistically equal to equimolar SA; 3 = potentiation statistically greater than equimolar SA. The following applies: for Potentiation of the herbicidal activity of atrazine compared with salicylic acid (in words): tobacco. The source says: (§1) In all examples, deionized ultra-pure water was used in preparing solutions. Spray solutions were used as soon as possible after mixing.
(§2) In all herbicide applications, plants were sprayed with a sufficient volume to insure good coverage, to the point of runoff of the spray solution. […] For all treatments containing both an herbicide and a salicylate or SAR inducer, these materials were mixed and applied in a single spray solution (commonly known as a tank mix). After spraying, plants were moved to the greenhouse and arranged in randomized complete blocks. Plants were evaluated for herbicidal effects (phytotoxicity) after spraying by assessing damage according to percent leaf area affected. All the data were subject to an analysis of variance, and the mean separations were determined with Duncan's multiple range test at α=0.05.

In assay [2] the test system is Xanthi-nc tobacco. The assay can be described thus: Herbicidal activity (phytotoxicity, percent leaf area affected) of foliar sprays on Xanthi-nc tobacco. It counts as in vivo, Nicotiana tabacum (tobacco). The following applies: for Phytotoxicity at 4 days: percent leaf area affected: alone or + NaSA 800 ppm.
Text: as §1, §2

Where [3] appears, read: salicylic acid or SAR inducers with Aatrex Nine-O (atrazine), compared with equimolar SA.
Where [4] appears, read: salicylates, picolinates and benzoates at 2 mM with Aatrex Nine-O (atrazine).
Setting [5] is: acibenzolar-S-methyl 935 ppm, alone or + atrazine (Aatrex Nine-O) 100 ppm.
The mark [6] stands for this setting: atrazine (Aatrex Nine-O) 100 ppm, NaSA 800 ppm, acibenzolar-S-methyl 187 ppm, alone or tank-mixed as labelled.

For the compound `O=C(O)c1cc(Cl)nc(Cl)c1` [2,6-Dichloroisonicotinic acid], the “Potentiation Rating” value in assay [1] (setting [3]) was determined as 3. Besides, in assay [1], the “Potentiation of the herbicidal activity of atrazine compared with salicylic acid (in words)” value was “greater potentiation than equimolar salicylic acid”.
For the compound `O=C(O)c1cc(Br)cc(Br)c1O` [3,5-Dibromosalicylic acid], the “Potentiation Rating” value in assay [1] (setting [4]) was 2. For the same compound, the “Potentiation of the herbicidal activity of atrazine compared with salicylic acid (in words)” value in assay [1] is “as active as salicylic acid”.
Turning to `O=C(O)c1cc(Cl)cc(Cl)c1O` [3,5-Dichlorosalicylic acid], in assay [1] (setting [3]), the “Potentiation Rating” value came out at 3. In assay [1], the “Potentiation of the herbicidal activity of atrazine compared with salicylic acid (in words)” value was “greater potentiation than equimolar salicylic acid”.
In the case of `O=C(O)c1cc(F)cc(F)c1O` [3,5-Difluorosalicylic acid], the “Potentiation Rating” value in assay [1] (setting [4]) came out at 3. Also, the “Potentiation of the herbicidal activity of atrazine compared with salicylic acid (in words)” value in assay [1] was “greater potentiation than salicylic acid”.
As for `O=C(O)c1cccc(Cl)c1O` [3-Chlorosalicylic acid], the “Potentiation Rating” value in assay [1] (setting [4]) stood at 3. For the same compound, the “Potentiation of the herbicidal activity of atrazine compared with salicylic acid (in words)” value in assay [1] is “greater potentiation than salicylic acid”.
In the same order, the values of `O=C(O)c1cccc(F)c1O` [3-Fluorosalicylic acid] are 3 and “greater potentiation than salicylic acid”.
On to `O=C(O)c1ncccc1O` [3-Hydroxypicolinic acid], for which the “Potentiation Rating” value in assay [1] (setting [4]) was 3.
As for `COc1cccc(C(=O)O)c1O` [3-Methoxysalicylic acid], in assay [1] (setting [4]), the “Potentiation Rating” value is on record as 2. Also, in assay [1], the “Potentiation of the herbicidal activity of atrazine compared with salicylic acid (in words)” value was “as active as salicylic acid”.
In the same order, the values of `Cc1cccc(C(=O)O)c1O` [3-Methylsalicylic acid] are 0 and “no potentiation”.
In the same order, the values of `O=C(O)c1cccc([N+](=O)[O-])c1O` [3-Nitrosalicylic acid] are 2 and “as active as salicylic acid”.
As for `O=C(O)c1ccc(Cl)cc1O` [4-Chlorosalicylic acid], the “Potentiation Rating” value in assay [1] (setting [3]) is 3. The “Potentiation of the herbicidal activity of atrazine compared with salicylic acid (in words)” value in assay [1] is given as “greater potentiation than equimolar salicylic acid”.
As for `O=C(O)c1ccc(F)cc1O` [4-Fluorosalicylic acid], the “Potentiation Rating” value in assay [1] (setting [4]) is recorded as 3. In addition, the “Potentiation of the herbicidal activity of atrazine compared with salicylic acid (in words)” value in assay [1] is “greater potentiation than salicylic acid”.
Consider `Cc1ccc(C(=O)O)c(O)c1` [4-Methylsalicylic acid], for which the “Potentiation Rating” value in assay [1] (setting [4]) came out at 0. Also, the “Potentiation of the herbicidal activity of atrazine compared with salicylic acid (in words)” value in assay [1] is recorded as “no potentiation”.
In the same order, the values of `O=C(O)c1cc(Br)ccc1O` [5-Bromosalicylic acid] are 2 and “as active as salicylic acid”.
On to `O=C(O)c1cc(Cl)ccc1O` [5-Chlorosalicylic acid], for which the “Potentiation Rating” value in assay [1] (setting [3]) came to 3. The “Potentiation of the herbicidal activity of atrazine compared with salicylic acid (in words)” value in assay [1] is “greater potentiation than equimolar salicylic acid”.
As for `O=C(O)c1cc(F)ccc1O` [5-Fluorosalicylic acid], the “Potentiation Rating” value in assay [1] (setting [4]) was determined as 3. In assay [1], the “Potentiation of the herbicidal activity of atrazine compared with salicylic acid (in words)” value is on record as “greater potentiation than salicylic acid”.
Take `Cc1ccc(O)c(C(=O)O)c1` [5-Methylsalicylic acid]: in assay [1] (setting [4]), the “Potentiation Rating” value is 0.
As to `O=C(O)c1cc([N+](=O)[O-])ccc1O` [5-Nitrosalicylic acid], the “Potentiation Rating” value in assay [1] (setting [4]) amounted to 2. The “Potentiation of the herbicidal activity of atrazine compared with salicylic acid (in words)” value in assay [1] is “as active as salicylic acid”.
As to `O=C(O)c1c(O)cccc1F` [6-Fluorosalicylic acid], the “Potentiation Rating” value in assay [1] (setting [4]) came to 2. Further, the “Potentiation of the herbicidal activity of atrazine compared with salicylic acid (in words)” value in assay [1] is given as “as active as salicylic acid”.
In the same order, the values of `Cc1cccc(O)c1C(=O)O` [6-Methylsalicylic acid] are 0 and “no potentiation”.
On to `CSC(=O)c1cccc2nnsc12` [Acibenzolar-S-methyl, 1,2,3-benzothiadiazole-7-carbothioic acid S-methyl ester], for which, in assay [1] (setting [3]), the “Potentiation Rating” value worked out at 3. Also, the “Potentiation of the herbicidal activity of atrazine compared with salicylic acid (in words)” value in assay [1] is on record as “greater potentiation than equimolar salicylic acid”. Moreover, in assay [2] (setting [5]), the “Phytotoxicity at 2 days: percent leaf area affected” value turned out to be 0 A percent, the “Phytotoxicity at 3 days: percent leaf area affected” value is 0 A percent and the “Phytotoxicity at 7 days: percent leaf area affected” value is listed as 0.6 A percent. Further, in assay [2] (setting [6]), the “Phytotoxicity at 2 days: percent leaf area affected” value was 0 A percent, the “Phytotoxicity at 3 days: percent leaf area affected” value is listed as 0 A percent and the “Phytotoxicity at 7 days: percent leaf area affected” value is 0 A percent. For the same compound, the “Effect of Actigard on atrazine activity (in words)” value in assay [2] (tobacco) was “dose-dependent acceleration of atrazine activity”.
On to `CC(C)N1C(=O)c2ccccc2NS1(=O)=O` [Bentazon, 3-(1-methylethyl)-1H-2,1,3-benzothiadiazin-4(3H)-one 2,2-dioxide], for which the “Phytotoxicity at 4 days: percent leaf area affected” value was 10 A percent in assay [2] (bentazon (Basagran) 100 ppm), 32.5 B percent in assay [2] (bentazon (Basagran) 250 ppm) and 72.5 CD percent in assay [2] (bentazon (Basagran) 500 ppm).
Take `C=CCOC1=NS(=O)(=O)c2ccccc21` [Probenazole]: the “Potentiation of the herbicidal activity of atrazine compared with salicylic acid (in words)” value in assay [1] is on record as “greater potentiation than equimolar salicylic acid”.
With `O=C(O)c1ccccc1O` [Salicylic acid, salicylic acid], the “Potentiation Rating” value in assay [1] (setting [4]) and in assay [1] (setting [3]) was 2 in each case.
In the case of `O=C([O-])c1ccccc1.[Na+]` [Sodium benzoate], in assay [1] (setting [4]), the “Potentiation Rating” value turned out to be 0. Also, in assay [1], the “Potentiation of the herbicidal activity of atrazine compared with salicylic acid (in words)” value was “no potentiation”.
Consider `CCOC(=O)C(C)OC(=O)c1cc(Oc2ccc(C(F)(F)F)cc2Cl)ccc1[N+](=O)[O-]` (centres unmarked) [lactofen], for which the “Potentiation of the herbicidal activity of atrazine compared with salicylic acid (in words)” value in assay [1] was “greater potentiation than equimolar salicylic acid”.

The record behind these values is US20040116293A1, “Enhanced herbicide composition” (priority 2002, published 2004).
